This is an account of results in PubChem BioAssay AID1963858 (Molecular Pharmacology Branch, DTP, NCI, 2024).

The experiment relates to HOP-62 multicell spheroids with HUVEC/MSC, viability. Put plainly: Anticancer human tumor HOP-62 cell line growth inhibition [KRAS2].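 As to all read-outs here: viability read after a week of compound exposure.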 The settings on record: for viability, T/C: stronger effect = lower value. An excerpt:
Multicellular complex tumor spheroid response to RAS pathway inhibitors in combination with a targeted agents in patient-derived cell lines with oncogenic KRAS variants from multiple cancer types
A high-throughput screen of multi-cell type tumor spheroids was designed to identify active combinations of targeted small molecules and KRAS pathway inhibitors. Complex spheroids include a stromal component modeled by human endothelial cells (HUVEC) and fibroblasts modeled by human mesenchymal stem cells (MSCs). The concentration ranges selected for each drug and investigational agent were based upon clinically achievable concentrations if the clinical Cmax of the agent was known.
Compounds. The drugs and investigational agents: BI-3406 (NSC825286), BAY-293 (NSC824723), batoprotafib (TNO155; NSC825523), sotorasib (AMG 510; NSC818433), MRTX1257 (NSC819558), elimusertib (BAY 1895344; NSC800525), molibresib (GSK525762; NSC774829), temuterkib (LY3214996; NSC803410), venetoclax (NSC766270), alisertib (NSC759677), olaparib (NSC753686), talazoparib (NSC767125), erdafitinib (NSC781556), ipatasertib (NSC767898), cabozantinib (NSC761068), nintedanib (NSC756659), abemaciclib (NSC768073), docetaxel (NSC628503), trametinib (NSC758246), and sapanisertib (NSC764658) were obtained from the National Cancer Institute (NCI) Developmental Therapeutics Program Chemical Repository. The FDA-approved anticancer drug set is available from the Developmental Therapeutics Program. […] The stock solutions were prepared in dimethyl sulfoxide (DMSO, Sigma-Aldrich, St. Louis, MO, cat. D2650) at 800-fold the tested concentration and stored at -70 degrees C prior to their use. All drugs and investigational agents were tested over a range starting from a high concentration at or near the clinical Cmax and decreasing in half-log increments. If the clinical Cmax for an agent had not been determined, the highest concentration tested was 10 microM.
Cell Culture. All cells were maintained in an incubator at 37 degrees C and 5% CO2 with 95% humidity. The PDC lines were cultured according to standard operating procedures established by the NCI PDMR (https://pdmr.cancer.gov/sops/default.htm). Briefly, all PDCs were thawed and cultured in Matrigel-coated flasks prepared with a working solution of 1X Ham's F-12 nutrient mix, without supplementation (Invitrogen, Waltham, MA, cat. 11765054), 100 U/mL penicillin-streptomycin (Invitrogen, cat. 15140122), and 2.5% Matrigel (Corning Inc., Corning, NY, cat. 354248) for the first three passages. All PDCs were cultured in complete DMEM/F-12 media containing advanced DMEM/F-12 (Invitrogen, cat. 12634028), 4.9% defined fetal bovine serum, heat inactivated (HyClone Laboratories Inc., Logan, UT, cat. SH30070.03HI), 389 ng/mL hydrocortisone (Sigma-Aldrich, cat. H4001), 9.7 ng/mL human EGF recombinant protein (Invitrogen, cat. PHG0313), 23.4 microg/mL adenine (Sigma-Aldrich, cat. A2786), 97.3 U/mL penicillin-streptomycin (Invitrogen, cat. 15140122), 1.9 mM L-glutamine (Invitrogen, cat. 25030081), and 9.7 microM Y-27632 dihydrochloride (Tocris Bioscience, Bristol, United Kingdom, cat. 1254). The PDCs were cultured in complete DMEM/F12 media without 9.7 microM Y-27632 dihydrochloride for at least two passages prior to the screen. The established cell line HOP-62 was cultured in RPMI 1640 medium, HEPES (Invitrogen, cat. 22400105) with 10% defined fetal bovine serum (HyClone Laboratories Inc., cat. SH30070.03) and 2 mM L-glutamine (Invitrogen, cat. 25030081). The pooled donor HUVEC were cultured in endothelial cell growth medium 2 (PromoCell, Heidelberg, Germany, cat. C-22011) and the hMSC were cultured in mesenchymal stem cell growth medium 2 (PromoCell, cat. C-28009). For all experiments, HUVEC and hMSC were used at passages </=5, while the malignant cell lines were used at passages </=15. […]

The mark [1] stands for this setting: curve of first compound, second compound 0.1 µM.
Where [2] appears, read: curve of first compound, second compound 0.316 µM.
The mark [3] stands for this setting: curve of first compound, second compound 1 µM.
Where [4] appears, read: curve of first compound, second compound 3.16 µM.
Setting [5] is: curve of first compound, second compound 10 µM.
[6] abbreviates: second compound 0.1 µM, first compound 0.0316 µM.
Setting [7] is: second compound 0.1 µM, first compound 0.1 µM.
Setting [8] is: second compound 0.1 µM, first compound 0.316 µM.
The mark [9] stands for this setting: second compound 0.1 µM, first compound 1 µM.
The mark [10] stands for this setting: second compound 0.1 µM, first compound 3.16 µM.
[11] abbreviates: second compound 0.1 µM, first compound 10 µM.
The mark [12] stands for this setting: second compound 0.316 µM, first compound 0.0316 µM.
The mark [13] stands for this setting: second compound 0.316 µM, first compound 0.1 µM.
The mark [14] stands for this setting: second compound 0.316 µM, first compound 0.316 µM.
Setting [15] is: second compound 0.316 µM, first compound 1 µM.
Where [16] appears, read: second compound 0.316 µM, first compound 3.16 µM.
The mark [17] stands for this setting: second compound 0.316 µM, first compound 10 µM.
Where [18] appears, read: second compound 1 µM, first compound 0.0316 µM.
The mark [19] stands for this setting: second compound 1 µM, first compound 0.1 µM.
[20] abbreviates: second compound 1 µM, first compound 0.316 µM.
Setting [21] is: second compound 1 µM, first compound 1 µM.
The mark [22] stands for this setting: second compound 1 µM, first compound 3.16 µM.
Setting [23] is: second compound 1 µM, first compound 10 µM.
Setting [24] is: second compound 3.16 µM, first compound 0.0316 µM.
Setting [25] is: second compound 3.16 µM, first compound 0.1 µM.
Setting [26] is: second compound 3.16 µM, first compound 0.316 µM.
[27] abbreviates: second compound 3.16 µM, first compound 1 µM.
[28] abbreviates: second compound 3.16 µM, first compound 3.16 µM.
Where [29] appears, read: second compound 3.16 µM, first compound 10 µM.
Setting [30] is: second compound 10 µM, first compound 0.0316 µM.
Where [31] appears, read: second compound 10 µM, first compound 0.1 µM.
Where [32] appears, read: second compound 10 µM, first compound 0.316 µM.
Setting [33] is: second compound 10 µM, first compound 1 µM.
Where [34] appears, read: second compound 10 µM, first compound 3.16 µM.
Setting [35] is: second compound 10 µM, first compound 10 µM.

Where “and” joins values, the source holds several entries; their conditions need not be identical. Identical values can stand only once.

For `COc1cc2nccc(Oc3ccc(NC(=O)C4(C(=O)Nc5ccc(F)cc5)CC4)cc3)c2cc1OC` + CC1OCC2(CCN(c3cnc(Sc4ccnc(N)c4Cl)c(N)n3)CC2)C1N, the IC50 was 7770 nM under setting [1]; 2260 nM under setting [2]; 31.6 nM under setting [3]; under 31.6 nM under setting [4]; under 31.6 nM under setting [5]. Also, the viability, T/C is 88.3% under setting [6]; 83% under setting [7]; 88% under setting [8]; 91.1% under setting [9]; 77.8% under setting [10]; 42.2% under setting [11]. Also, the viability, T/C was 81.8% under setting [12]; 67.3% under setting [13]; 73.4% under setting [14]; 84.1% under setting [15]; 38.9% under setting [16]; 33.5% under setting [17]. Besides, the viability, T/C is 43.5% under setting [18]; 50.5% under setting [19]; 49.4% under setting [20]; 52.7% under setting [21]; 19% under setting [22]; 27.5% under setting [23]. For the same compound, the viability, T/C under setting [24] was 33.2%; the viability, T/C under setting [25] was 24.1%; the viability, T/C under setting [26] was 16.4%; the viability, T/C under setting [27] was 17%; the viability, T/C under setting [28] was 15.9%; the viability, T/C under setting [29] was 9.51%. Further, the viability, T/C by setting is: under setting [30], 30.8%; under setting [31], 19.3%; under setting [32], 20.4%; under setting [33], 16.8%; under setting [34], 11.6%; under setting [35], 16.7%.
For `CN(C)C/C=C/C(=O)Nc1cc2c(Nc3ccc(F)c(Cl)c3)ncnc2cc1O[C@H]1CCOC1`, the viability, T/C is, setting by setting: (compound 0.000316 µM) 105% and 110% and 102% (2×); (compound 0.001 µM) 114% (2×) and 107% and 102% (2×); (compound 0.00316 µM) 104% [middle of 5 runs]; (compound 0.01 µM) 104% [middle of 5 runs]; (compound 0.0316 µM) 105% [middle of 5 runs]; (compound 0.1 µM) 102% [middle of 5 runs]. Further, where the note is “curve of compound”, the half-inhibitory concentration (IC50) was over 100 nM.
On to `CNCc1ccccc1-c1csc(C(C)Nc2nc(C)nc3cc(OC)c(OC)cc23)c1` (stereo not drawn), for which the viability, T/C reads like this: (compound 0.1 µM) 99.2% [middle of 17 runs]; (compound 10 µM) 0.22% [middle of 15 runs]. The IC50 by setting is: (compound alone, run of 07/19/2021) 1.54 µM [middle of 5 runs]; (compound alone, run of 07/26/2021) 1.73 µM [middle of 6 runs].
Consider `Cn1nccc1Nc1nccc(-c2cc3c(s2)C(C)(C)N(CCN2CCOCC2)C3=O)n1` + CNCc1ccccc1-c1csc(C(C)Nc2nc(C)nc3cc(OC)c(OC)cc23)c1, for which the IC50 is, setting by setting: under setting [1], 1220 nM; under setting [2], 859 nM; under setting [3], 646 nM; under setting [4], under 31.6 nM; under setting [5], under 31.6 nM. Moreover, the viability, T/C runs as follows: under setting [6], 110%; under setting [7], 102%; under setting [8], 92.8%; under setting [9], 52.5%; under setting [10], 34.6%; under setting [11], 28.3%. For the same compound, the viability, T/C under setting [12] was 104%; the viability, T/C under setting [13] is 98.3%; the viability, T/C under setting [14] is 77.1%; the viability, T/C under setting [15] is 47.5%; the viability, T/C under setting [16] was 25.3%; the viability, T/C under setting [17] is 26.9%. Also, the viability, T/C was 101% under setting [18]; 99% under setting [19]; 68.3% under setting [20]; 39.6% under setting [21]; 27.6% under setting [22]; 27.1% under setting [23]. For the same compound, the viability, T/C is 1.01% under setting [24]; 2.12% under setting [25]; 0.23% under setting [26]; 0.16% under setting [27]; 0.1% under setting [28]; 0.18% under setting [29]. The viability, T/C is, setting by setting: under setting [30], 0.19%; under setting [31], 0.19%; under setting [32], 0.2%; under setting [33], 0.2%; under setting [34], 0.22%; under setting [35], 0.23%.
On to `COC(=O)c1ccc2c(C(=Nc3ccc(N(C)C(=O)CN4CCN(C)CC4)cc3)c3ccccc3)c(O)[nH]c2c1`, for which the viability, T/C is, setting by setting: (compound 0.0316 µM) 89.8% [middle of 5 runs]; (compound 0.1 µM) 77.7% [middle of 5 runs]; (compound 0.316 µM) 65.8% [middle of 5 runs]; (compound 1 µM) 48.6% [middle of 5 runs]; (compound 3.16 µM) 40.7% [middle of 5 runs]; (compound 10 µM) 15.8% [middle of 5 runs]. The IC50 (curve of compound) is 1.09 µM [middle of 5 runs].

As usually defined, the IC50 is the concentration that gives 50% inhibition. A word on the viability, T/C: it is the ratio of treated to control.
